The values below come from patent US20050209278A1, “Piperidinyl- and piperazinyl-sulfonylmethyl hydroxamic acids and their use as protease inhibitors” (priority 2002, published 2005).

Common to all, as to type: biochemical
For test [1], the target named is T1, MMP-1 (Homo sapiens, UniProt P03956).
T1 construct: made in house; host or cells: MMP-1-transfected HT-1080 cells (spent media)
T1 sequence (P03956 100-469): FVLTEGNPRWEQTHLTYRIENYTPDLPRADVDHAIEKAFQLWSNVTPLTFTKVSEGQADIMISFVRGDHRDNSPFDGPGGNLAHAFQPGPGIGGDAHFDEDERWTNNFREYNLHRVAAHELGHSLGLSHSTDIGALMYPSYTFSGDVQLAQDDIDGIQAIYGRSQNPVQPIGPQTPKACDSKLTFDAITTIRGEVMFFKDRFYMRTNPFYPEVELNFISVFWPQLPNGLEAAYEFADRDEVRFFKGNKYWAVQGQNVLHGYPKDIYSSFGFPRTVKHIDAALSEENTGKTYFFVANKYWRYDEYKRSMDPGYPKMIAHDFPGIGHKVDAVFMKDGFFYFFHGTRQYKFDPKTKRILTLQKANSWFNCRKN
As to the kind of experiment: MMP-1 inhibition (in vitro Ki). To be noted: Table 9; read-out: MMP-1 Ki (IC-50).

The target of test [2] is T2, MMP-9 (Homo sapiens, UniProt P14780).
T2 construct: made in house; host or cells: MMP-9-transfected HT1080 cells (spent media)
T2 sequence (P14780 107-707 limits assumed): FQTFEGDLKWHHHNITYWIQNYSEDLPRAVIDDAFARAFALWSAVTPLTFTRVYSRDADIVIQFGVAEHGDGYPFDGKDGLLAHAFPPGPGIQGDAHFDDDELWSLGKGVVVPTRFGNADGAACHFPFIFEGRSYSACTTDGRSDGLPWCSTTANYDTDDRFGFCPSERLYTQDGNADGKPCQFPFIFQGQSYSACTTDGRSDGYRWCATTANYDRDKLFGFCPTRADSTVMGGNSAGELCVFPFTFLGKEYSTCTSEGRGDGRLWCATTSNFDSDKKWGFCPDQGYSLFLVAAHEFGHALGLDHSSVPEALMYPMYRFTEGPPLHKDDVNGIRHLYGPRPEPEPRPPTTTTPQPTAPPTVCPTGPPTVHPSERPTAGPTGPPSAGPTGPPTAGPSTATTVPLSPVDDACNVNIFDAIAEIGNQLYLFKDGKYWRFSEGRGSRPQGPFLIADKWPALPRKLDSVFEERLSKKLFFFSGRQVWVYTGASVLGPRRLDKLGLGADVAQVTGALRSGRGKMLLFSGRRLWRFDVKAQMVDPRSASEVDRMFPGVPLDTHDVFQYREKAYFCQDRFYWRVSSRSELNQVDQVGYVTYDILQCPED
Nature of the test: MMP-9 inhibition (in vitro Ki). The settings on record: Table 9; read-out: MMP-9 Ki (IC-50).

Test [3] concerns the target T3, MMP-14 (Homo sapiens, UniProt P50281).
T3 construct: The catalytic domain enzyme was expressed in E. coli inclusion bodies, solubilized in urea; made in house
As to the kind of experiment: MMP-14 inhibition (in vitro Ki). The settings on record: Table 9; read-out: MMP-14 Ki (IC-50).

In test [4] the target is T4, MMP-2 (Homo sapiens, UniProt P08253).
T4 construct: made in house; host or cells: MMP-2-transfected p2AHT2 cells
T4 sequence (P08253 110-660): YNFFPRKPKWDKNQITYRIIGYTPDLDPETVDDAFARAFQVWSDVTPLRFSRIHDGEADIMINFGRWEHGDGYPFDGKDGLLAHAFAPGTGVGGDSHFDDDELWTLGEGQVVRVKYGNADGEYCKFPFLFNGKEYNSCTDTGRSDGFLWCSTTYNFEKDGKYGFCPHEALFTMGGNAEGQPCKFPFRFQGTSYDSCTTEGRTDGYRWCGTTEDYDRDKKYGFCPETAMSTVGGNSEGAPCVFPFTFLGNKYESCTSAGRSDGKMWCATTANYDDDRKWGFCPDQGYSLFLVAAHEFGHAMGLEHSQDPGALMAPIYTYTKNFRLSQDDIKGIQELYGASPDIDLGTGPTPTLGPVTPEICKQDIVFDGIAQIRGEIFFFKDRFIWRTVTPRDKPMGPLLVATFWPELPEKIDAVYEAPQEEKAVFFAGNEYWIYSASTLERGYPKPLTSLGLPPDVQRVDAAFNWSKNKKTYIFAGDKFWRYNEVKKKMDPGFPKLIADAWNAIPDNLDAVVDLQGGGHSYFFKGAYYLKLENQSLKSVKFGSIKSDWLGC
As to the kind of experiment: MMP-2 inhibition (in vitro Ki). To be noted: Table 9; read-out: MMP-2 Ki (IC-50).

Test [5] deals with T5, MMP-13 (Homo sapiens, UniProt P45452).
T5 construct: made in house; host or cells: baculovirus / insect cells
As to the kind of experiment: MMP-13 inhibition (in vitro Ki). To be noted: Table 9; read-out: MMP-13 Ki (IC-50).

By Ki is commonly meant the equilibrium dissociation constant of an inhibitor or competing ligand from its target. Consider `O=C(CCCCC1CCN(S(=O)(=O)C2(C(=O)NO)CCOCC2)CC1)N1CC2CCCCC2C1` (stereo not drawn) [Example A88], for which the Ki was 2780 nM in test [1]; 50.7 nM in test [2]; 5.36 µM in test [3]; 38 nM in test [4]; 2.01 nM in test [5].
As to `O=C(CCCCC1CCN(S(=O)(=O)C2(C(=O)NO)CCOCC2)CC1)Nc1ccc(OC(F)(F)F)cc1` [Example A89], the Ki in test [1] was found to be 1030 nM; in test [2], 471 nM; in test [3], 8.57 µM; in test [4], 29.3 nM; in test [5], 0.66 nM.
For the compound `CC(C)CN(C)C(=O)CCCCC1CCN(S(=O)(=O)C2(C(=O)NO)CCOCC2)CC1` [Example A91], the Ki in test [1] is 2580 nM; in test [2], 3800 nM; in test [3], greater than 10 µM; in test [4], 781 nM; in test [5], 5.08 nM.
Regarding `O=C(CCCCC1CCN(S(=O)(=O)C2(C(=O)NO)CCOCC2)CC1)N1CCCCC1` [Example A92], the Ki in test [1] is 3910 nM; in test [2], 1100 nM; in test [3], greater than 10 µM; in test [4] it was 237 nM; in test [5] it was 2.01 nM.
In the case of `CN(C(=O)CCCCC1CCN(S(=O)(=O)C2(C(=O)NO)CCOCC2)CC1)c1ccc(F)cc1` [Example A93], the Ki in test [1] was 1050 nM; in test [2], 336 nM; in test [3], greater than 10 µM; in test [4], 92.3 nM; in test [5], 0.82 nM.
For `CN(C(=O)CCCCC1CCN(S(=O)(=O)C2(C(=O)NO)CCOCC2)CC1)c1ccccc1` [Example A94] the same measures were 2820 nM, 823 nM, greater than 10 µM, 197 nM and 1.18 nM.
As for `O=C(NO)C1(S(=O)(=O)N2CCC(c3ccc(CCc4ccsc4)cn3)CC2)CCOCC1` [Example A95], the Ki in test [1] was determined as 7630 nM; in test [2] it was 7.97 nM; in test [3] it was 2.27 µM; in test [4] it was 2.13 nM; in test [5], 0.376 nM.
For `CN(C(=O)CCCCC1CCN(S(=O)(=O)C2(C(=O)NO)CCOCC2)CC1)C1CCCCC1` [Example A96], the Ki in test [1] is 1110 nM; in test [2] it was 726 nM; in test [3] it was greater than 10 µM; in test [4], 240 nM; in test [5] it was 1.1 nM.
On to `O=C(CCCCC1CCN(S(=O)(=O)C2(C(=O)NO)CCOCC2)CC1)N1CCCC1` [Example A97], for which the Ki in test [1] was 496 nM; in test [2], 592 nM; in test [3], greater than 10 µM; in test [4], 135 nM; in test [5] it was 1.63 nM.
For `O=C(CCCCC1CCN(S(=O)(=O)C2(C(=O)NO)CCOCC2)CC1)N1CCN(c2ccccc2)CC1` [Example A98], in that order: 1620 nM, 191 nM, greater than 10 µM, 38.2 nM and 0.17 nM.
Take `CN(Cc1ccco1)C(=O)CCCCC1CCN(S(=O)(=O)C2(C(=O)NO)CCOCC2)CC1` [Example A99]: the Ki in test [1] was 356 nM; in test [2], 241 nM; in test [3], greater than 10 µM; in test [4] it was 50.8 nM; in test [5] it was 0.79 nM.
For `O=C(NO)C1(S(=O)(=O)N2CCC(c3ccc(CCc4ccccc4)cn3)CC2)CCOCC1` [Example A100], in that order: greater than 10000 nM, 13.2 nM, 1.77 µM, 5.27 nM and 0.45 nM.
As to `O=C(NO)C1(S(=O)(=O)N2CCC(c3ccc(CCC(F)(F)C(F)(F)F)cn3)CC2)CC=CC1` [Example A101], the Ki in test [1] was 721 nM; in test [2], 0.33 nM; in test [3], 2.64 µM; in test [4], 0.9 nM; in test [5] it was 0.17 nM.
For `O=C(NO)C1(S(=O)(=O)N2CCC(c3ccc(CCc4cccs4)cn3)CC2)CCOCC1` [Example A102], in that order: 6280 nM, 3.84 nM, 2.16 µM, 1.3 nM and 0.215 nM.
`COC(=O)CCCCC1CCN(S(=O)(=O)C2(C(=O)NO)CCOCC2)CC1` [Example A103]: the Ki amounted to 363 nM in test [1]; 3.39 nM in test [2]; 2.88 µM in test [3]; 3.84 nM in test [4]; 1.08 nM in test [5].
For `O=C(NO)C1(S(=O)(=O)N2CCC(c3ccc(CCC(F)(F)F)cn3)CC2)CCCC1` [Example A105] the same measures were 2170 nM, 0.18 nM, 1.13 µM, 0.52 nM and 0.23 nM.
Consider `O=C(NO)C1(S(=O)(=O)N2CCC(c3ccc(CCC4CCCC4)cn3)CC2)CCOCC1` [Example A106], for which the Ki in test [1] stood at 5460 nM; in test [2] it was 1.05 nM; in test [3], 1.25 µM; in test [4] it was 0.54 nM; in test [5], 0.14 nM.
In the case of `COCCC(CCOC)(C(=O)NO)S(=O)(=O)N1CCC(c2ccc(CCC(F)(F)C(F)(F)F)cn2)CC1` [Example A107], the Ki in test [1] stood at 4440 nM; in test [2], 0.86 nM; in test [3] it was 3.37 µM; in test [4], 2.89 nM; in test [5], 0.85 nM.
`O=C(NCCCCC1CCN(S(=O)(=O)C2(C(=O)NO)CCOCC2)CC1)C(=O)c1cccs1` [Example A108]: the Ki came out at 630 nM in test [1]; 55.5 nM in test [2]; 4.52 µM in test [3]; 3.25 nM in test [4]; 0.16 nM in test [5].
For `COCC(=O)N1CCC(C(=O)NO)(S(=O)(=O)N2CCC(c3ccc(CCC(F)(F)C(F)(F)F)cn3)CC2)CC1` [Example A109] the same measures were 8300 nM, 26.8 nM, 3.72 µM, 0.6 nM and 0.42 nM.
With `O=C(NO)C1(S(=O)(=O)N2CCC(c3cnc(CCC4CC4)cn3)CC2)CCOCC1` [Example A110], the Ki was greater than 10000 nM in test [1]; 1.03 nM in test [2]; 9.21 µM in test [3]; 7.78 nM in test [4]; 4.4 nM in test [5].
In the case of `CN(CC1CCCCC1)C(=O)CCCC1CCN(S(=O)(=O)C2(C(=O)NO)CCOCC2)CC1` [Example A111], the Ki is greater than 10000 nM in test [1]; 1710 nM in test [2]; greater than 10 µM in test [3]; 364 nM in test [4]; 9.09 nM in test [5].
Turning to `CN(CC1CCCCC1)C(=O)CCCCC1CCN(S(=O)(=O)C2(C(=O)NO)CCOCC2)CC1` [Example A112], the Ki was 708 nM in test [1]; 1820 nM in test [2]; greater than 10 µM in test [3]; 190 nM in test [4]; 0.92 nM in test [5].
For the compound `O=C(NO)C1(S(=O)(=O)N2CCC(c3ccc(CCC(F)(F)C(F)(F)F)cn3)CC2)Cc2ccccc2C1` [Example A113], the Ki in test [1] was 9730 nM; in test [2], 0.8 nM; in test [3], 4.41 µM; in test [4], 1.28 nM; in test [5], 0.34 nM.
In the case of `O=C(NO)C1(S(=O)(=O)N2CCN(c3nnn(Cc4ccccc4)n3)CC2)CCOCC1` [Example A114], the Ki turned out to be 5410 nM in test [1]; 0.94 nM in test [2]; 1.15 µM in test [3]; 0.38 nM in test [4]; 0.8 nM in test [5].
In the case of `O=C(NCCCCC1CCN(S(=O)(=O)C2(C(=O)NO)CCOCC2)CC1)C1(c2ccccc2)CC1` [Example A115], the Ki in test [1] is greater than 10000 nM; in test [2] it was 1350 nM; in test [3], greater than 10 µM; in test [4] it was 98.5 nM; in test [5], 0.81 nM.
Take `O=C(NO)C1(S(=O)(=O)N2CCC(c3ccc(/C=C/C(F)(F)C(F)(F)F)cn3)CC2)CCOCC1` [Example A116]: the Ki came out at 1700 nM in test [1]; 0.14 nM in test [2]; 0.331 µM in test [3]; 0.19 nM in test [4]; 0.08 nM in test [5].
